Data as given in article PMC7229842, “Molecular basis of the multifaceted functions of human leucyl-tRNA synthetase in protein synthesis and beyond” (Nucleic Acids Research, 2020).

Key:
[1] = target: T1, Human cytosolic leucyl-tRNA synthetase (hcLRS) (Homo sapiens, UniProt Q9P2J5); assay: X-ray co-crystal structure at […] Å (as AN6426-AMP); aminoacylation inhibition IC50; type: biochemical
T1 construct: gene LARS1
Target sequence in this assay (Q9P2J5 whole entry): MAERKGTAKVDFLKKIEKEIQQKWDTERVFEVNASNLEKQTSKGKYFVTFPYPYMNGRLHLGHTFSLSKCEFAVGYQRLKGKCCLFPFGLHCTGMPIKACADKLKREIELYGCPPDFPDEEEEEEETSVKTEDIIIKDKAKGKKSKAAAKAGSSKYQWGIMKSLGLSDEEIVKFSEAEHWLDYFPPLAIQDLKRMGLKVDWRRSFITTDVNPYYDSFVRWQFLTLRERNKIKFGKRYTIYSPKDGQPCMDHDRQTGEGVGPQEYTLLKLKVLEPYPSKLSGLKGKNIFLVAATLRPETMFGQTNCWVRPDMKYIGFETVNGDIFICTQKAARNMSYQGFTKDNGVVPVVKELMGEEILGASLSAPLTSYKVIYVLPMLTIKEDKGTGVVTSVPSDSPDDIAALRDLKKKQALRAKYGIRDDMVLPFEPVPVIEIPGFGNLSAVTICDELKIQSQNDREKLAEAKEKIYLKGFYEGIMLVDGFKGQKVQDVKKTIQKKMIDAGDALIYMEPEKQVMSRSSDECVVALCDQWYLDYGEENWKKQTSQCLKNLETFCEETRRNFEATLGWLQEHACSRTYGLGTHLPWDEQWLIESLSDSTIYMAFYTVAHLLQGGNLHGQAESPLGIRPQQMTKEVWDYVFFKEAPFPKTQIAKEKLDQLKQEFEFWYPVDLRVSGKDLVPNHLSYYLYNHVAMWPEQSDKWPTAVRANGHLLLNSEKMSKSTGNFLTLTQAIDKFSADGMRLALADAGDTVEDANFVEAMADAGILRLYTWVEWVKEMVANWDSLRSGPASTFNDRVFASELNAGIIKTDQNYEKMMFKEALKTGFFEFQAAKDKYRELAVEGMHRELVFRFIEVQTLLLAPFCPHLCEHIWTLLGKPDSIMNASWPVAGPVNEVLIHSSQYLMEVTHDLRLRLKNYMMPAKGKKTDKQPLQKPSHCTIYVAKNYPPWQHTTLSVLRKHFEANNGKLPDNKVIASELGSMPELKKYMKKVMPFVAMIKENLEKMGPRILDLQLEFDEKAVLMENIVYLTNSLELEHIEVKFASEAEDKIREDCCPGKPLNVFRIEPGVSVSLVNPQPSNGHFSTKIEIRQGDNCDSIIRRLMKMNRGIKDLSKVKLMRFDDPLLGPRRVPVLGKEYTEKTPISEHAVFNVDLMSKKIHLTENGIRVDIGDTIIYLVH

[2] = target: T1, Human cytosolic leucyl-tRNA synthetase (hcLRS); assay: X-ray co-crystal structure, […] Å; type: binding
Target sequence in this assay (Q9P2J5 1-1070): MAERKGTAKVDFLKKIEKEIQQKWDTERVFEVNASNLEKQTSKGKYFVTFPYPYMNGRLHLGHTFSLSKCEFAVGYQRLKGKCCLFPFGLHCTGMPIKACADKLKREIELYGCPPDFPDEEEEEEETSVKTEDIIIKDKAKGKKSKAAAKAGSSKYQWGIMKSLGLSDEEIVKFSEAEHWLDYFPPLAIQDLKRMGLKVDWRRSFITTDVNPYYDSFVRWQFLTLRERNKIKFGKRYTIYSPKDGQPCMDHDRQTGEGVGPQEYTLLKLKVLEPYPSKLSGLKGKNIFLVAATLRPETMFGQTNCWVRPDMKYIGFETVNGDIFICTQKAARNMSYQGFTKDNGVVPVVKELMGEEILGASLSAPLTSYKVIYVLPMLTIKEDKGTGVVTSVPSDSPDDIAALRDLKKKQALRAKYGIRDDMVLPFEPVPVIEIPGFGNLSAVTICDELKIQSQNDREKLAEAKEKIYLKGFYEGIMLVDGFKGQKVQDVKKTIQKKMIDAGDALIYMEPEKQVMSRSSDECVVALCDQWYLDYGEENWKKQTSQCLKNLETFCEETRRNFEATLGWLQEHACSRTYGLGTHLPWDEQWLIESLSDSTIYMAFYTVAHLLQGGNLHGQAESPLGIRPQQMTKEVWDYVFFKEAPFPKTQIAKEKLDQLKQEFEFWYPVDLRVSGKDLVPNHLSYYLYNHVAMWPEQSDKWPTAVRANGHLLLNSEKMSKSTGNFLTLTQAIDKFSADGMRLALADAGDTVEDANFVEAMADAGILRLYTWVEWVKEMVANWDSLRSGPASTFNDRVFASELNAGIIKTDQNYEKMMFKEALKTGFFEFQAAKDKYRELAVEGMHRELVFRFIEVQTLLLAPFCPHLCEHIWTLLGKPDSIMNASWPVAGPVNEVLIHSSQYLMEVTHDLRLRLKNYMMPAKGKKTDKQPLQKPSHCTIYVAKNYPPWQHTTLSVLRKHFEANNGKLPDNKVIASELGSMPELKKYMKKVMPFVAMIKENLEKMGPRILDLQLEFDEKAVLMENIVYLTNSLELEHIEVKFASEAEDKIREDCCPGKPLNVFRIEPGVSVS

[3] = target: T1, Human cytosolic leucyl-tRNA synthetase (hcLRS); assay: aminoacylation assay with [3H]-Leu and tRNA^Leu(CAG), purified hcLRS; type: biochemical
Target sequence in this assay (Q9P2J5 whole entry): as the sequence (Q9P2J5 whole entry) above

Compound: CCOc1ccc(Cl)c2c1B(O)OC2CN (stereo not drawn) [AN6426]
- IC50 [1]: 7.7 µM

Compound: CC(C)C[C@H](N)C(=O)NS(=O)(=O)OC[C@H]1O[C@@H](n2cnc3c(N)ncnc32)[C@H](O)[C@@H]1O [LeuAMS]
- X-ray co-crystal structure, 2.5 Å [2]: LeuAMS, a stable analog of LeuAMP, was bound in the aminoacylation active site in our structure

Compound: OB1OCc2cc(F)ccc21 [tavaborole]
- IC50 [3]: 14.8 µM
